From US20220330548A1, “Peptides with Phytosanitary Activities” (Universita' Degli Studi Di Padova, priority 2021, published 2022)
[ ]: non-standard residue; d: D form. The star is where a group is joined. Octanoyl = CCCCCCCC(=O)*; Aib = CC(C)(N)C(=O)O

Experiments:
Plasmopara viticola = test: Infection by P. viticola on vine leaf discs; format: in vivo, Plasmopara viticola on vine leaf discs (cv. Glera); conditions: peptide 50 μM, 12 days after inoculation
Protocol: Infection tests were performed on vine leaf disks (cv. Glera) of 1 cm in diameter. Twenty leaf discs obtained from randomly collected leaves from different plants were placed with the lower side facing upwards on moistened sterile paper placed in Petri dishes (15 cm diameter). Approximately 0.1 mL of each aqueous solution containing the peptide (50 μM) was distributed on each leaf disc. Aqueous suspensions of P. viticola sporangia, collected from infected vine plants, were diluted to obtain 3-5×10^5 sporangia/mL and distributed on the leaf discs. The plates containing the leaf discs were incubated in the dark at room temperature (22-23° C.). The incidence was calculated 12 days after inoculation as the ratio of the number of sporulating discs to the total number of discs inoculated. Control plates contained water-treated leaf discs. Two or three plates were used for each treatment. The data obtained were statistically analysed by applying the Anova and Bonferroni-Holmes one-way test.

Botrytis cinerea = format: cell-based, Botrytis cinerea (strain PM10)
Pyricularia oryzae [1] = test system: Pyricularia oryzae; parameters: species or system Pyricularia oryzae strain IT10 on barley leaves; conditions: in vivo
Fusarium graminearum [2] = test system: Fusarium graminearum; parameters: species or system Fusarium graminearum on ears of wheat; conditions: in vivo
Fusarium graminearum [3] = format: cell-based
Pyricularia oryzae [4] = format: cell-based
Pyricularia oryzae [5] = format: cell-based, Pyricularia oryzae (strain IT10)
Fusarium graminearum [6] = format: cell-based, Fusarium graminearum (strain 8/1)

1-octanoyl-Aib-Gly-Leu-Aib-Gly-Gly-Leu-Aib-Lys(HCl)-Ile-Leu-NH2 (Octanoyl-[Aib]GL[Aib]GGL[Aib]KIL-NH2; also: Lys9 as HCl salt) [SEQ. ID. No. 6]
incidence of Plasmopara viticola infection on vine leaf discs (Plasmopara viticola): significantly decreases the P. viticola infection

1-octanoyl-Aib-Gly-Leu-Aib-Gly-Gly-Leu-Aib-Lys(HCl)-Ile-Lol [SEQ. ID. No. 5]
decrease of growth of Botrytis cinerea compared to the untreated control (Botrytis cinerea): at least 95% | incidence of Plasmopara viticola infection on vine leaf discs (Plasmopara viticola): significantly decreases the P. viticola infection

1-octanoyl-Aib-Lys(HCl)-Leu-Aib-Lys(HCl)-Gly-Leu-Aib-Lys(HCl)-Ile-Lol [SEQ. ID. No. 1]
decrease of infected (lesion) area of barley leaves compared to control leaves (Pyricularia oryzae [1]): at least 95% | decrease of infection (infected spikelets) in treated ears compared to untreated control ears (Fusarium graminearum [2]): at least 95% | further decrease of infection compared with treatment with PEP4 and PEP4-rink (Fusarium graminearum [2]): 10-30% | protection of the ear of wheat against infection caused by Fusarium graminearum (Fusarium graminearum [2]): protects the ear of wheat against infection caused by Fusarium graminearum | protection of the ear of wheat compared with the known peptide PEP4 (Fusarium graminearum [2]): greater | microscopic observation of Fusarium graminearum after treatment (Fusarium graminearum [3]): germination is inhibited and the cytoplasm is agglutinated | microscopic observation of Pyricularia oryzae spores after treatment (Pyricularia oryzae [4]): germination is inhibited and the cytoplasm is agglutinated | viability of Pyricularia oryzae spores (autofluorescence of agglutinated cytoplasm) (Pyricularia oryzae [4]): the cells are no longer viable

1-octanoyl-Leu-Aib-Lys(HCl)-Ile-Leu-NH2 [SEQ. ID. No. 10]
decrease of growth of Pyricularia oryzae compared to the untreated control (Pyricularia oryzae [5]): at least 95% | decrease of growth of Botrytis cinerea compared to the untreated control (Botrytis cinerea): at least 95% | decrease of growth of Fusarium graminearum compared to the untreated control (Fusarium graminearum [6]): at least 95%
